In paper doi:10.1101/2025.07.30.667614, “Steric control of signaling bias in the immunometabolic receptor GPR84” (bioRxiv, 2025):
Read-outs that look alike come from different tables or passages of the source.

Assays:
[1] = biological target: T1, GPR84 F187A (GPR84-Gi2α fusion protein) (Homo sapiens, UniProt Q9NQS5, F187A); assay: [35S]GTPγS binding assay; format: biochemical
T1 construct: FLAG (N); Gαi2-Cys352Ile (fusion partner) (C); expressed in transfected cells
Description: (§1) Membranes were generated from Flp-In™ T-REx™ 293 cells following 100 ng/ml doxycycline treatment to induce receptor expression. Cells were washed with ice-cold phosphate-buffered saline (PBS), removed from dishes by scraping and centrifuged at 1,800 x g for 5 min at 4 °C. Pellets were resuspended in TE buffer (10mM Tris-HCl, 0.1 mM EDTA; pH 7.4) containing a protease inhibitor mixture and homogenized with a 5 ml hand-held homogenizer. Samples were centrifuged at 450 x g for 5 min at 4 °C and the supernatant was further centrifuged at 90,000 x g for 45 min at 4 °C. The resulting pellet was resuspended in TE buffer and protein content was assessed using a BCA protein assay kit.
(§2) Prepared membrane protein (3 μg per well) was incubated in assay buffer (20 mM HEPES, 5 mM MgCl2, 160 mM NaCl, 0.05 % fatty-acid-free bovine serum albumin; pH 7.4) containing the indicated ligand concentrations. The reaction was initiated by addition of [^35S]GTPγS (100 nCi per reaction) with 1 μM GDP, and incubated at 30 °C for 60 min. The reaction was terminated by rapid vacuum filtration through GF/C glassfibre filter-bottom 96-well microplates using a UniFilter FilterMate Harvester (PerkinElmer). Unbound radioligand was removed from filters by three washes with ice-cold PBS. Ultima Gold™ XR was added to dried filters, and [^35S]GTPγS binding quantified by liquid scintillation spectroscopy.

[2] = biological target: T2, GPR84 L336A (GPR84-Gi2α fusion protein) (Homo sapiens, UniProt Q9NQS5, L336A); assay: [35S]GTPγS binding assay; format: biochemical
T2 construct: FLAG (N); Gαi2-Cys352Ile (fusion partner) (C); expressed in transfected cells
T2 sequence (Q9NQS5 whole entry L336A, the tested form may be a part): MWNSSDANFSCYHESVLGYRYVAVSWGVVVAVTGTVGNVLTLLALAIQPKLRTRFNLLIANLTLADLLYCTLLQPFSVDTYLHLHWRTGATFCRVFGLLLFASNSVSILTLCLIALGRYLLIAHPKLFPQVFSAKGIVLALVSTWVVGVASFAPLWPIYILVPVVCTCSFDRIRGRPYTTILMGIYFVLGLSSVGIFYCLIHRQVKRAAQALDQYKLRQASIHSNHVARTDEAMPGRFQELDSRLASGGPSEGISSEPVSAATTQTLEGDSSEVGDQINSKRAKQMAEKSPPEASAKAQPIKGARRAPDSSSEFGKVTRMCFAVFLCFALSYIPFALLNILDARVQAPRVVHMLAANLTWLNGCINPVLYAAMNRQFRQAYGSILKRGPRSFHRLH
Description: as §1, §2

[3] = biological target: T3, GPR84 N104A (GPR84-Gi2α fusion protein) (Homo sapiens, UniProt Q9NQS5, N104A); assay: [35S]GTPγS binding assay; format: biochemical; settings: for fold reduction in potency compared to wild type: Asn104Ala; for Emax: read-out: Emax ± SEM
T3 construct: FLAG (N); Gαi2-Cys352Ile (fusion partner) (C); expressed in transfected cells
T3 sequence (Q9NQS5 whole entry N104A, the tested form may be a part): as the sequence (Q9NQS5 whole entry L336A, the tested form may be a part) above, with N104A, A336L counted along it
Description: as §1, §2

GPR84 N362S = biological target: T4, GPR84 N362S (Homo sapiens, UniProt Q9NQS5, N362S); assay: [35S]GTPγS binding assay; format: biochemical; settings: for Emax: read-out: Emax ± SEM
T4 construct: FLAG (N); Gαi2-Cys352Ile (fusion partner) (C); expressed in transfected cells
T4 sequence (Q9NQS5 whole entry N362S, the tested form may be a part): as the sequence (Q9NQS5 whole entry L336A, the tested form may be a part) above, with A336L, N362S counted along it
Description: as §1, §2

[4] = biological target: T5, GPR84 S169A (GPR84-Gi2α fusion protein) (Homo sapiens, UniProt Q9NQS5, S169A); assay: [35S]GTPγS binding assay; format: biochemical; settings: for fold reduced potency compared to wild type: Ser169Ala; for Emax: read-out: Emax ± SEM
T5 construct: FLAG (N); Gαi2-Cys352Ile (fusion partner) (C); expressed in transfected cells
T5 sequence (Q9NQS5 whole entry S169A, the tested form may be a part): as the sequence (Q9NQS5 whole entry L336A, the tested form may be a part) above, with S169A, A336L counted along it
Description: as §1, §2

[5] = biological target: T6, GPR84 T167A (GPR84-Gi2α fusion protein) (Homo sapiens, UniProt Q9NQS5, T167A); assay: [35S]GTPγS binding assay; format: biochemical; settings: for fold reduction in potency compared to wild type: Thr167Ala; for Emax: read-out: Emax ± SEM
T6 construct: FLAG (N); Gαi2-Cys352Ile (fusion partner) (C); expressed in transfected cells
T6 sequence (Q9NQS5 whole entry T167A, the tested form may be a part): as the sequence (Q9NQS5 whole entry L336A, the tested form may be a part) above, with T167A, A336L counted along it
Description: as §1, §2

[6] = biological target: T7, GPR84 W360A (GPR84-Gi2α fusion protein) (Homo sapiens, UniProt Q9NQS5, W360A); assay: [35S]GTPγS binding assay; format: biochemical; settings: for fold reduced potency compared to wild type: Trp360Ala; for Emax: read-out: Emax ± SEM
T7 construct: FLAG (N); Gαi2-Cys352Ile (fusion partner) (C); expressed in transfected cells
T7 sequence (Q9NQS5 whole entry W360A, the tested form may be a part): as the sequence (Q9NQS5 whole entry L336A, the tested form may be a part) above, with A336L, W360A counted along it
Description: as §1, §2

GPR84 Y332A = biological target: T8, GPR84 Y332A (Homo sapiens, UniProt Q9NQS5, Y332A); assay: [35S]GTPγS binding assay; format: biochemical; settings: for Emax: read-out: Emax ± SEM
T8 construct: FLAG (N); Gαi2-Cys352Ile (fusion partner) (C); expressed in transfected cells
T8 sequence (Q9NQS5 whole entry Y332A, the tested form may be a part): as the sequence (Q9NQS5 whole entry L336A, the tested form may be a part) above, with Y332A, A336L counted along it
Description: as §1, §2

GPR84 Y332F = biological target: T9, GPR84 Y332F (Homo sapiens, UniProt Q9NQS5, Y332F); assay: [35S]GTPγS binding assay; format: biochemical; settings: for Emax: read-out: Emax ± SEM
T9 construct: FLAG (N); Gαi2-Cys352Ile (fusion partner) (C); expressed in transfected cells
T9 sequence (Q9NQS5 whole entry Y332F, the tested form may be a part): as the sequence (Q9NQS5 whole entry L336A, the tested form may be a part) above, with Y332F, A336L counted along it
Description: as §1, §2

[7] = biological target: T10, GPR84 Y69A (GPR84-Gi2α fusion protein) (Homo sapiens, UniProt Q9NQS5, Y69A); assay: [35S]GTPγS binding assay; format: biochemical; settings: for Emax: read-out: Emax ± SEM
T10 construct: FLAG (N); Gαi2-Cys352Ile (fusion partner) (C); expressed in transfected cells
T10 sequence (Q9NQS5 whole entry Y69A, the tested form may be a part): as the sequence (Q9NQS5 whole entry L336A, the tested form may be a part) above, with Y69A, A336L counted along it
Description: as §1, §2

[8] = biological target: T11, GPR84 Y81A (GPR84-Gi2α fusion protein) (Homo sapiens, UniProt Q9NQS5, Y81A); assay: [35S]GTPγS binding assay; format: biochemical; settings: for fold reduced potency compared to wild type: Tyr81Ala; for Emax: read-out: Emax ± SEM
T11 construct: FLAG (N); Gαi2-Cys352Ile (fusion partner) (C); expressed in transfected cells
T11 sequence (Q9NQS5 whole entry Y81A, the tested form may be a part): as the sequence (Q9NQS5 whole entry L336A, the tested form may be a part) above, with Y81A, A336L counted along it
Description: as §1, §2

[9] = biological target: GPR84-WT (GPR84-Gi2α fusion protein) (Homo sapiens, UniProt Q9NQS5); assay: [35S]GTPγS binding assay; format: biochemical; settings: for Emax: read-out: Emax ± SEM
GPR84-WT (GPR84-Gi2α fusion protein), sequence (Q9NQS5 whole entry, the tested form may be a part): as the sequence (Q9NQS5 whole entry L336A, the tested form may be a part) above, with A336L counted along it
GPR84-WT (GPR84-Gi2α fusion protein), sequence (P04899 with tags, fused parts or gaps C352I partner): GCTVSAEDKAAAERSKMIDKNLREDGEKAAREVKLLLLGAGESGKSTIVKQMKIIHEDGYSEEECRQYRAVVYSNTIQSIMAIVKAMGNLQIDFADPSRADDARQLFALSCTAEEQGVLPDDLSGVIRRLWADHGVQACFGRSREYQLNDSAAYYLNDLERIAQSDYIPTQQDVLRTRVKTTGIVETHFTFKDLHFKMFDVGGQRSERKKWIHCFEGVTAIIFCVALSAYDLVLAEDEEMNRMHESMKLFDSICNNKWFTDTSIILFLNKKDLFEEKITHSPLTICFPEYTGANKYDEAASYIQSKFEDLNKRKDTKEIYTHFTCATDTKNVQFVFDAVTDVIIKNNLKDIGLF
Description: as §1, §2

GPR84 = GPR84 (Homo sapiens, UniProt Q9NQS5); assay: CHO-K1-based PathHunter β-arrestin-2 recruitment assay; format: cell-based; design: host or cells: CHO-K1; settings: for Emax: read-out: β-arrestin-2 %Emax ± SEM
GPR84, sequence (Q9NQS5 whole entry): as the sequence (Q9NQS5 whole entry L336A, the tested form may be a part) above, with A336L counted along it
Description: Cells were stimulated with test ligands for 90 min. Compounds were prepared at 5× concentration in DPBS containing 0.1% BSA and 0.125% Tween-80 to minimise aggregation. β-arrestin recruitment was quantified using the PathHunter® β-Arrestin Assay (DiscoverX 93-0001) following the manufacturer’s instructions. Luminescence was recorded after 18 h using a PHERAstar® FS plate reader.

[10] = F187A, read-out: pEC50 ± SEM (converted)
[11] = L336A, read-out: pEC50 ± SEM (converted)

T1 sequence (Q9NQS5 whole entry F187A, the tested form may be a part): as the sequence (Q9NQS5 whole entry L336A, the tested form may be a part) above, with F187A, A336L counted along it

SMILES	EC50 [1, 10]	EC50 [2, 11]	fold reduction in potency compared to wild type ([3]; [35S]GTPγS)	EC50 ([3]; [35S]GTPγS, N104A)	EC50 (GPR84 N362S; [35S]GTPγS, N362S)	EC50 ([4]; [35S]GTPγS, S169A)	fold reduced potency compared to wild type ([4]; [35S]GTPγS)	EC50 ([5]; [35S]GTPγS, T167A)	fold reduction in potency compared to wild type ([5]; [35S]GTPγS)	fold reduced potency compared to wild type ([6]; [35S]GTPγS)	EC50 ([6]; [35S]GTPγS, W360A)	EC50 (GPR84 Y332A; [35S]GTPγS, Y332A)	EC50 (GPR84 Y332F; [35S]GTPγS, Y332F)	EC50 ([7]; [35S]GTPγS, Y69A)	fold reduced potency compared to wild type ([8]; [35S]GTPγS)	EC50 ([8]; [35S]GTPγS, Y81A)	Emax (GPR84)	further results
[O-][n+]1cc(O)cc(CCc2ccc(Cl)c(C(F)(F)F)c2)c1 [OX04529]	0.102 nM	0.0692 nM	5 fold	3.98 nM	16.6 nM	417 nM	~300 fold	17.8 nM	greater than 10 fold	~10 fold	8.71 nM	0.347 nM	2.57 nM	4.57 nM	~10 fold	21.4 nM	10 ± 1.5%	fold greater potency than at wild type ([1]; Phe187Ala): more than 10 fold; EC50 ([1]; Phe187Ala, read-out: EC50): ~0.1 nM; fold greater potency than at wild type ([2]; Leu336Ala): more than 10 fold; EC50 ([2]; Leu336Ala, read-out: EC50): ~0.1 nM; Emax [3]: 68 ± 8%; Emax (GPR84 N362S): 126 ± 30%; Emax [4]: 30 ± 2%; Emax [5]: 82 ± 10%; Emax [6]: 75 ± 10%; Emax (GPR84 Y332A): 50 ± 12%; Emax (GPR84 Y332F): 134 ± 12%; Emax [7]: 94 ± 9%; Emax [8]: 85 ± 4%; EC50 ([9]; pEC50 ± SEM, [35S]GTPγS, GPR84-WT, Extended Data Table 3): 1.26 nM; EC50 ([9]; pEC50 ± SEM, [35S]GTPγS, GPR84-WT, Extended Data Tables 1 and 5): 1.17 nM; Emax [9]: 119 ± 13%
Cc1cc(CCCc2cc(O)c[n+]([O-])c2)ccc1Cl [OX04954]	0.107 nM	0.0427 nM	~10 fold	11.7 nM	24 nM	380 nM	more than 1000 fold	15.1 nM	~10 fold	~10 fold	13.5 nM	0.427 nM	4.17 nM	5.13 nM	~10 fold	16.2 nM	71 ± 1.3%	Emax ([3]; [35S]GTPγS, N104A): 130 ± 20%; Emax (GPR84 N362S; [35S]GTPγS, N362S): 124 ± 19%; Emax ([4]; [35S]GTPγS, S169A): 47 ± 11%; Emax ([5]; [35S]GTPγS, T167A): 129 ± 15%; Emax ([6]; [35S]GTPγS, W360A): 75 ± 8%; Emax (GPR84 Y332A; [35S]GTPγS, Y332A): 60 ± 11%; Emax (GPR84 Y332F; [35S]GTPγS, Y332F): 151 ± 10%; Emax ([7]; [35S]GTPγS, Y69A): 106 ± 4%; Emax ([8]; [35S]GTPγS, Y81A): 133 ± 18%; EC50 ([9]; [35S]GTPγS, GPR84-WT, Extended Data Table 3, read-out: pEC50 ± SEM (converted)): 0.661 nM; Emax ([9]; [35S]GTPγS, GPR84-WT, Extended Data Tables 1 and 5): 129 ± 12%; EC50 ([9]; [35S]GTPγS, GPR84-WT, Extended Data Tables 1 and 5, read-out: pEC50 ± SEM (converted)): 0.661 nM; change in efficacy in β-arrestin-2 recruitment (GPR84; compared to OX04929 (so in the source)): no significant change; EC50 (GPR84; wild type GPR84, CHO-K1 PathHunter, read-out: β-arrestin-2 pEC50 ± SEM (converted)): 93.3 nM
